Test results published in patent US7842683B2, “Neurotherapeutic compositions and method” (Revaax Pharmaceuticals, LLC, priority 1999, dated 2010).

What was measured:
Male Wistar rats = assay: Elevated plus-maze (anxiolytic activity); assay type: in vivo, rat
[1] = cited from earlier work
[2] = approximately 7-10 mg/kg/day, intravenous as TIMENTIN; cited from earlier work
bacteria = details: cited from earlier work
hamsters = assay: Olfactory discrimination: latency to find hidden sunflower seeds; assay type: in vivo, Syrian golden hamsters (Mesocricetus auratus); details: 50 μg/kg
Protocol: Sixteen animals were treated with vehicle or 50 μg/kg Mox and tested for olfactory discrimination by measuring their latency to find hidden sunflower seeds (FIG. 5). The injections were counterbalanced with each animal receiving each treatment. Prior to testing animals were fasted for 24 hrs. Ninety minutes after injection animals were briefly taken from their home cage while six sunflower seeds were buried under the bedding in one corner. Animals were placed back into their home cage and scored for the latency to find the seeds in a ten min observation period. […] In fact, not one of the sixteen animals consumed all of the seeds following saline as compared to all animals treated with Mox.
Six animals received an intracerebroventricular injection of vehicle or 1 mg/kg PPP and tested for olfactory discrimination by measuring their latency to find hidden sunflower seeds (FIG. 16). The injections were counterbalanced with each animal receiving each treatment. Prior to testing animals were fasted for 24 hrs. Sixty min. After injection animals were briefly taken from their home cage while six sunflower seeds were buried under the bedding in one corner. Animals were placed back into their home cage and scored for the latency to find the seeds in a five min. Observation period.

male hamsters [3] = assay: Sexual activity toward a receptive female; assay type: in vivo, golden hamsters; details: 50 μg/kg, 90 min
Protocol: Six animals were tested over a five min observation period for sexual activity following treatment with saline vehicle or 50 μg/kg Mox (FIG. 6). The study was counter balanced with each animal receiving each treatment. Ninety min after injection, animals were scored for latency to mount and number of intromissions, i.e., bouts of copulation, toward a receptive female placed into their home cage. Female golden hamsters were ovariectomized under general anesthesia. Following recovery animals were treated with a single SC injection of […] estradiol benzoate for three consecutive days to induce sexual receptivity. On the day of testing the estrogen primed females were introduced into the home cage of the experimental males. […] Lordosis, is a stereotyped posture characterized by intense, sustained vertebral dorsiflexion.

male hamsters [4] = assay: Radial arm maze (spatial memory); assay type: in vivo; details: 50 μg/kg
Text: The radial arm maze is one of the most commonly used methods for testing spatial learning and memory in rodents. Developed by Olton and co-workers (1976), it provides the simultaneous choice of several alternative paths for the test subject. Animals must learn which locations provide food (place learning) using visuospatial cues. Experimental Trials: The experimental trials consist of three phases (described below). The arms of the maze are numbered clock-wise from one to seven with arm number one being the arm furthest to the right side of the maze. All trials are […]. When not being tested, all hamsters have unlimited access to water. […] Trials within all the phases are conducted on successive days. Phase One: Phase One consists of five 15 min trials. Prior to the beginning of each of the five trials in Phase One, four sunflower seeds are placed at the ends of arms one, two, and three. Arms four, five, six, and seven remain empty. Phase Two: Phase Two of the experimental trials are identical to Phase One except that the seeds are placed in arms two, four, and seven. […] Coding of Behaviors: An arm entry was scored if all four paws of a hamster crossed an arm threshold. A full arm entry into an arm is scored if a hamster's snout touches the top of the block at the end of an arm or if their snout passes the block. […] In addition, the number of seeds pouched by the hamsters was scored. […]

[5] = test system: serotonin 5HT1A receptors; assay: Receptor autoradiography, competition for I125 DPAT; assay type: binding; details: tissue sections of the hamster brain
Text: Vasopressin and serotonin are both critical neurotransmitters in the control of offensive aggression in male hamsters (Ferris et al., 1998). These two neurotransmitters also are implicated in the control of human aggression (Coccaro et al., 1998). Vasopressin facilitates aggressive behavior while serotonin inhibits aggression, in part, by inhibiting the activity of the vasopressin system. Blockade of vasopressin V1A receptors and stimulation of serotonin 5HT1A receptors in the anterior hypothalamus blocks offensive aggression (Ferris et al., 1999). […] To test this notion Mox was tested in a membrane binding assay for competition for the V1A receptor (Ferris et al., 1994) and in a receptor autoradiography assay for competition for the 5HT1A receptors (Ferris et al., 1999).

[6] = test system: Amino Acid, Adrenergic, Serotonergic, and Dopaminergic Receptors and Their Transporters; assay: NOVASCREEN screen of thirty-six receptor and transporter binding assays; details: 100 nM, duplicate samples
Text: Moxalactam was screened in thirty-six different binding assays by NOVASCREEN, a contract research organization based in Hanover, Md. […] These assays were chosen because their respective receptor or transporter may play a role in the pathophysiology of mental illness. […] [table] [table] [table] [table] [table]

[7] = test system: Corticotropin Releasing Factor receptor; assay: NOVASCREEN CRF binding assay; details: 100 nM
Protocol: [table] Corticotropin releasing hormone (CRH or CRF as shown on the following page) is a critical neurohormone in the regulation of stress. Since Mox suppresses impulsivity, aggression, and anxiety while enhancing learning and memory it may be acting to reduce stress. For this reason, Mox was tested by NOVASCREEN in a CRF binding assay.

gram-negative meningitis = details: 241 of 260; 4 g every 8 hrs for 2-3 weeks; cited from earlier work

| Structure (SMILES) | effective dose, times less than CDP (Male Wistar rats; CLAV 100 ng/kg vs CDP 10 mg/kg) | open arm entries (Male Wistar rats; daily IP for seven days: CLAV 100 ng/kg, CDP 10 mg/kg) | CSF/plasma ratio ([1]; in vivo) | elimination half-life ([1]; in vivo) | plasma half-life ([1]; in vivo) | volume of distribution ([1]; in vivo) | bioavailability ([1]; oral) [%] | adverse reactions or contraindications [2] | antibacterial activity (bacteria) | time to consume all seeds (hamsters) | latency to find the seed (hamsters; 90 min, fasted 24 hrs) | intromission rate (male hamsters [3]) | time to mount (male hamsters [3]; five min observation) | number of seeds discovered after reversing the orientation of the maze (male hamsters [4]) | reduction of specific binding of I125 DPAT [5] | effect in the thirty-six binding assays [6] | effect in the CRF binding assay [7] | patients with satisfactory response to antibiotic therapy (gram-negative meningitis) [%] |
| --- | --- | --- | --- | --- | --- | --- | --- | --- | --- | --- | --- | --- | --- | --- | --- | --- | --- | --- |
| O=C(O)[C@H]1/C(=C/CO)O[C@@H]2CC(=O)N21 [CLAV, Clavulanic acid] | 100,000 times | no significant difference | around 0.25 | under two | over 2 hrs | around 15 liters | 64 to 75 | no reported adverse reactions or contraindications | weak antibacterial activity |  |  |  |  |  |  |  |  |  |
| CO[C@@]1(NC(=O)C(C(=O)O)c2ccc(O)cc2)C(=O)N2C(C(=O)O)=C(CSc3nnnn3C)CO[C@@H]21 (stereo partly drawn) [Mox, 7-β-[2-carboxy-2-(4-hydroxyphenyl)acetamido]-7α-methoxy-3-[[(1-methyl-1H-tetrazol-5-yl)thio]methyl]-1-oxa-1-dethia-3-cephem-4-carboxylic acid] |  |  |  |  |  |  |  |  |  | less than five | significantly (p<0.001) reduced | trend toward a decreased intromission rate | significantly increased | significantly increased | ineffective | no significant effect | no effect | 93 |
